Results: the supplement of paper PMC11451515

Tested on: P12-Ichikawa
Assay: cell viability relative to DMSO control; higher = less cytotoxic
Conditions: 48 h
Summary of the method: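 NOMO1 or SEM cells were plated at 500 cells/well and P12-Ichikawa cells at 1000 cells/well in 1536-well plates (5 μl), after each leukemia line had been adapted for at least four passages in each medium. Pin dosing delivered library compounds in DMSO at 11 threefold concentrations, 47 μM to 0.79 nM. CellTiter-Glo One luminescence was read after 48 h at 37°C. Viability is reported as a per-plate percentage of DMSO wells, with cell-free wells as background.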

[1] = HPLM + 10% dialyzed FBS, 0.000781 µM
[2] = HPLM + 10% dialyzed FBS, 0.00234 µM
[3] = HPLM + 10% dialyzed FBS, 0.00702 µM
[4] = HPLM + 10% dialyzed FBS, 0.0211 µM
[5] = HPLM + 10% dialyzed FBS, 0.0632 µM
[6] = HPLM + 10% dialyzed FBS, 0.19 µM
[7] = HPLM + 10% dialyzed FBS, 0.569 µM
[8] = HPLM + 10% dialyzed FBS, 1.71 µM
[9] = HPLM + 10% dialyzed FBS, 5.12 µM
[10] = HPLM + 10% dialyzed FBS, 15.4 µM
[11] = HPLM + 10% dialyzed FBS, 46.1 µM
[12] = RPMI 5 mM glucose + 10% FBS, 0.000781 µM
[13] = RPMI 5 mM glucose + 10% FBS, 0.00234 µM
[14] = RPMI 5 mM glucose + 10% FBS, 0.00702 µM
[15] = RPMI 5 mM glucose + 10% FBS, 0.0211 µM
[16] = RPMI 5 mM glucose + 10% FBS, 0.0632 µM
[17] = RPMI 5 mM glucose + 10% FBS, 0.19 µM
[18] = RPMI 5 mM glucose + 10% FBS, 0.569 µM
[19] = RPMI 5 mM glucose + 10% FBS, 1.71 µM
[20] = RPMI 5 mM glucose + 10% FBS, 5.12 µM
[21] = RPMI 5 mM glucose + 10% FBS, 15.4 µM
[22] = RPMI 5 mM glucose + 10% FBS, 46.1 µM
[23] = RPMI 5 mM glucose + 10% dialyzed FBS, 0.000781 µM
[24] = RPMI 5 mM glucose + 10% dialyzed FBS, 0.00234 µM
[25] = RPMI 5 mM glucose + 10% dialyzed FBS, 0.00702 µM
[26] = RPMI 5 mM glucose + 10% dialyzed FBS, 0.0211 µM
[27] = RPMI 5 mM glucose + 10% dialyzed FBS, 0.0632 µM
[28] = RPMI 5 mM glucose + 10% dialyzed FBS, 0.19 µM
[29] = RPMI 5 mM glucose + 10% dialyzed FBS, 0.569 µM
[30] = RPMI 5 mM glucose + 10% dialyzed FBS, 1.71 µM
[31] = RPMI 5 mM glucose + 10% dialyzed FBS, 5.12 µM
[32] = RPMI 5 mM glucose + 10% dialyzed FBS, 15.4 µM
[33] = RPMI 5 mM glucose + 10% dialyzed FBS, 46.1 µM

c1cc2c(cc1[C@H]1OC[C@H]3[C@@H]1CO[C@@H]3c1ccc3c(c1)OCO3)OCO2
cell viability [1]: 122%
cell viability [2]: 120%
cell viability [3]: 118%
cell viability [4]: 124%
cell viability [5]: 122%
cell viability [6]: 129%
cell viability [7]: 133%
cell viability [8]: 122%
cell viability [9]: 119%
cell viability [10]: 128%
cell viability [11]: 122%

O=C(Nc1cccnc1)N1CCC(Cc2cccc(Oc3ccc(C(F)(F)F)cn3)c2)CC1
cell viability [1]: 116%
cell viability [2]: 107%
cell viability [3]: 109%
cell viability [4]: 104%
cell viability [5]: 110%
cell viability [6]: 92%
cell viability [7]: 83.1%
cell viability [8]: 76.3%
cell viability [9]: 68.7%
cell viability [10]: 27.1%
cell viability [11]: 15.5%
cell viability [12]: 109%
cell viability [13]: 117%
cell viability [14]: 117%
cell viability [15]: 106%
cell viability [16]: 118%
cell viability [17]: 97.6%
cell viability [18]: 82.2%
cell viability [19]: 64.2%
cell viability [20]: 55.6%
cell viability [21]: 23.5%
cell viability [22]: 10.4%
cell viability [23]: 108%
cell viability [24]: 108%
cell viability [25]: 113%
cell viability [26]: 114%
cell viability [27]: 103%
cell viability [28]: 88.4%
cell viability [29]: 81.1%
cell viability [30]: 62.6%
cell viability [31]: 50.4%
cell viability [32]: 29.3%
cell viability [33]: 13.9%

NC[C@H](O)c1ccc(O)c(O)c1
cell viability [1]: 98.9%
cell viability [2]: 100%
cell viability [3]: 99%
cell viability [4]: 103%
cell viability [5]: 98.8%
cell viability [6]: 102%
cell viability [7]: 97.4%
cell viability [8]: 92.4%
cell viability [9]: 92.8%
cell viability [10]: 92.6%
cell viability [11]: 83.5%
cell viability [12]: 101%
cell viability [13]: 99.5%
cell viability [14]: 94.1%
cell viability [15]: 98.9%
cell viability [16]: 105%
cell viability [17]: 96.7%
cell viability [18]: 97.6%
cell viability [19]: 92.3%
cell viability [20]: 91.2%
cell viability [21]: 90.2%
cell viability [22]: 84.4%
cell viability [23]: 89.9%
cell viability [24]: 96%
cell viability [25]: 99.9%
cell viability [26]: 88.1%
cell viability [27]: 96.1%
cell viability [28]: 97.6%
cell viability [29]: 86.3%
cell viability [30]: 93.6%
cell viability [31]: 92%
cell viability [32]: 86.5%
cell viability [33]: 81.5%

CC(C)(Sc1cc(C(C)(C)C)c(O)c(C(C)(C)C)c1)Sc1cc(C(C)(C)C)c(O)c(C(C)(C)C)c1
cell viability [1]: 88.5%
cell viability [2]: 84.4%
cell viability [3]: 90%
cell viability [4]: 96.2%
cell viability [5]: 94.1%
cell viability [6]: 91%
cell viability [7]: 95.7%
cell viability [8]: 89.4%
cell viability [9]: 97%
cell viability [10]: 99.7%
cell viability [11]: 99.9%
cell viability [12]: 80.2%
cell viability [13]: 77.9%
cell viability [14]: 87.2%
cell viability [15]: 85.6%
cell viability [16]: 83.9%
cell viability [17]: 92.8%
cell viability [18]: 93.7%
cell viability [19]: 85.4%
cell viability [20]: 79.2%
cell viability [21]: 92.8%
cell viability [22]: 92.8%
cell viability [23]: 79.2%
cell viability [24]: 85.3%
cell viability [25]: 82.3%
cell viability [26]: 85.6%
cell viability [27]: 87.8%
cell viability [28]: 87.6%
cell viability [29]: 84.7%
cell viability [30]: 87.2%
cell viability [31]: 81.3%
cell viability [32]: 81.2%
cell viability [33]: 88.4%

C[C@]12CC[C@H]3[C@@H](CC[C@@]45O[C@@H]4C(O)=C(C#N)C[C@]35C)[C@@H]1CC[C@@H]2O
cell viability [1]: 108%
cell viability [2]: 116%
cell viability [3]: 113%
cell viability [4]: 116%
cell viability [5]: 125%
cell viability [6]: 116%
cell viability [7]: 111%
cell viability [8]: 115%
cell viability [9]: 113%
cell viability [10]: 107%
cell viability [11]: 20.9%
cell viability [12]: 101%
cell viability [13]: 103%
cell viability [14]: 108%
cell viability [15]: 120%
cell viability [16]: 108%
cell viability [17]: 114%
cell viability [18]: 121%
cell viability [19]: 122%
cell viability [20]: 116%
cell viability [21]: 108%
cell viability [22]: 12.3%
cell viability [23]: 101%
cell viability [24]: 103%
cell viability [25]: 113%
cell viability [26]: 116%
cell viability [27]: 114%
cell viability [28]: 114%
cell viability [29]: 111%
cell viability [30]: 115%
cell viability [31]: 109%
cell viability [32]: 105%
cell viability [33]: 16.7%

CC[C@H](CO)Nc1nc(NCc2ccccc2)c2ncn(C(C)C)c2n1
cell viability [1]: 85.4%
cell viability [2]: 93.9%
cell viability [3]: 95.1%
cell viability [4]: 91.7%
cell viability [5]: 94.8%
cell viability [6]: 95.1%
cell viability [7]: 93.1%
cell viability [8]: 86.4%
cell viability [9]: 91.6%
cell viability [10]: 85.2%
cell viability [11]: 79.5%
cell viability [12]: 91.2%
cell viability [13]: 93.1%
cell viability [14]: 93.2%
cell viability [15]: 92.9%
cell viability [16]: 98.1%
cell viability [17]: 95.2%
cell viability [18]: 95.9%
cell viability [19]: 82.8%
cell viability [20]: 86.4%
cell viability [21]: 77.6%
cell viability [22]: 78.2%
cell viability [23]: 91.2%
cell viability [24]: 94.4%
cell viability [25]: 95.5%
cell viability [26]: 83.9%
cell viability [27]: 89.5%
cell viability [28]: 94.3%
cell viability [29]: 92%
cell viability [30]: 88.7%
cell viability [31]: 87.3%
cell viability [32]: 86.6%
cell viability [33]: 82%

Cc1cnc(Nc2cccc(CN3CCOCC3)c2)nc1Nc1cccc([S+](=O)([O-])NC(C)(C)C)c1
cell viability [1]: 90%
cell viability [2]: 91.9%
cell viability [3]: 90.5%
cell viability [4]: 96.2%
cell viability [5]: 91.9%
cell viability [6]: 89.3%
cell viability [7]: 95.1%
cell viability [8]: 92.2%
cell viability [9]: 44%
cell viability [10]: 91.5%
cell viability [11]: 54.4%
cell viability [12]: 91%
cell viability [13]: 87.7%
cell viability [14]: 85.9%
cell viability [15]: 92.2%
cell viability [16]: 89.8%
cell viability [17]: 88.7%
cell viability [18]: 80.8%
cell viability [19]: 86.4%
cell viability [20]: 20.5%
cell viability [21]: 88.2%
cell viability [22]: 73.4%
cell viability [23]: 80.8%
cell viability [24]: 83.2%
cell viability [25]: 82.6%
cell viability [26]: 79.7%
cell viability [27]: 85.9%
cell viability [28]: 82.3%
cell viability [29]: 85.4%
cell viability [30]: 81.4%
cell viability [31]: 41.7%
cell viability [32]: 76.8%
cell viability [33]: 53.1%

CN1CCC(CNc2ccc3ncc(-c4cccc(OC(F)(F)F)c4)n3n2)CC1
cell viability [1]: 108%
cell viability [2]: 110%
cell viability [3]: 97.3%
cell viability [4]: 109%
cell viability [5]: 105%
cell viability [6]: 103%
cell viability [7]: 108%
cell viability [8]: 102%
cell viability [9]: 97.4%
cell viability [10]: 92.8%
cell viability [11]: 5.65%
cell viability [12]: 100%
cell viability [13]: 101%
cell viability [14]: 89.4%
cell viability [15]: 102%
cell viability [16]: 100%
cell viability [17]: 102%
cell viability [18]: 99.8%
cell viability [19]: 94.7%
cell viability [20]: 89.1%
cell viability [21]: 79.7%
cell viability [22]: 4.48%
cell viability [23]: 92.7%
cell viability [24]: 92.9%
cell viability [25]: 92.2%
cell viability [26]: 95.4%
cell viability [27]: 94.7%
cell viability [28]: 92.4%
cell viability [29]: 101%
cell viability [30]: 92.3%
cell viability [31]: 85.9%
cell viability [32]: 84.3%
cell viability [33]: 4.77%
